# In publication PMC12597552 (Drug metabolism and disposition: the biological fate of …, 2025):
# “Also recorded” adds a separate entry of the source. Where two headings read alike, the source gives them in different places.
# Key:
# CYP2C9 [1] = biological target: T1, CYP2C9 (Homo sapiens, UniProt P11712); settings: CYP2C9-mediated 4′-hydroxylation of diclofenac; cited from earlier work
# CYP2B6 = settings: read-out: Ki,u, cited from earlier work
# CYP3A4 [2] = biological target: T2, CYP3A4 (Homo sapiens, UniProt P08684); settings: CYP3A4-mediated 1′-hydroxylation of midazolam; cited from earlier work
# T2 sequence (P08684 whole entry): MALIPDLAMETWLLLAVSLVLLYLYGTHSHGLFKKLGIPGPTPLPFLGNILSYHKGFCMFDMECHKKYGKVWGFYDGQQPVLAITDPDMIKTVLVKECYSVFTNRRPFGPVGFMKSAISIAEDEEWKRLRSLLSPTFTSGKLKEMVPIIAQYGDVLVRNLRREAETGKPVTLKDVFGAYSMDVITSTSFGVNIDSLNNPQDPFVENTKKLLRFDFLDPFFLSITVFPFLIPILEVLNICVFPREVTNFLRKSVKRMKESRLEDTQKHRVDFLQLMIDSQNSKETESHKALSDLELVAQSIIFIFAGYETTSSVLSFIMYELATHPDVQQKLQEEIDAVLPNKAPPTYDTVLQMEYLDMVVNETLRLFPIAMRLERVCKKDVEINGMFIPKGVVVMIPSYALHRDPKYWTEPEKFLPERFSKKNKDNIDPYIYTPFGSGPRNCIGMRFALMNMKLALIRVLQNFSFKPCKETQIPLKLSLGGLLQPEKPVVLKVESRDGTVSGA
# [3] = value set in static model; cited from earlier work
# CYP1A2 = settings: read-out: Ki,u, cited from earlier work
# CYP2D6 = settings: read-out: Ki,u, cited from earlier work
# CYP2C19 = settings: read-out: Ki,u, cited from earlier work
# CYP2C9 [4] = settings: mechanistic static modeling, cited from earlier work
# CYP2C9 [5] = biological target: T1, CYP2C9; assay: Inhibition of recombinant CYP2C9-overexpressing microsomes (diclofenac and warfarin probes); format: in vitro ADME; design: made in house; host or cells: HEK293 cells (microsomal fraction); settings: for Inhibition Type: cell merged over rec CYP2C9 and HLM; for inhibition mechanism (Lineweaver–Burk): recombinant P450 microsomes and HLM, consistent profiles; for IC50: IC50,u, rec CYP2C9 microsomes; for IC50 / Ki: unbound, mean ± SD; for Ki: Ki,u, rec CYP2C9
# [6] = test system: CYPs 1A2, 2B6, 2C8, 2C9, 2C19, 2D6, 2E1, and 3A4; assay: Initial inhibition screen at 1 or 10 μM, panel of major hepatic P450 enzymes; format: in vitro ADME, human; settings: for inhibition of other major hepatic P450 enzymes tested: enzymes other than CYPs 2C9 and 3A4; for inhibition of any P450 enzymes tested: 1 or 10 μM, recombinant microsomes and HLM
# CYP3A4 [7] = biological target: T2, CYP3A4; assay: Initial inhibition screen at 1 or 10 μM, CYP3A4 (recombinant microsomes and HLM); format: in vitro ADME; design: made in house; host or cells: HEK293 cells (microsomal fraction); settings: for reduction of 1′-hydroxymidazolam formation: 10 μM cannabinoid, recombinant P450-overexpressing microsomes as well as HLM; for inhibition of CYP3A4 with testosterone as substrate: substrate-specific: midazolam vs testosterone
# [8] = set by similarity to Δ9-THC; cited from earlier work
# [9] = cited from earlier work
# CYP3A4 [10] = biological target: T2, CYP3A4; assay: IC50 shift assay in recombinant CYP3A4 microsomes; format: in vitro ADME; design: made in house; settings: recombinant CYP3A4-overexpressing microsomes, probe midazolam (1′-hydroxylation), 1′-hydroxylation of midazolam, rec CYP3A4, 30-min preincubation minus vs plus NADPH, mean ± SD
# Protocol: (§1) To characterize inhibition type, IC50 shift studies were performed using recombinant P450-overexpressing microsomes. Assays were preincubated at 37°C for 30 minutes with cannabinoid with or without NADPH in the absence of a probe substrate. After preincubation, substrate was added and incubated for 30 minutes. IC50 values were calculated as mentioned above using GraphPad Prism 10.0.
# (§2) IC50shift=IC50with30-minpreincubationminusNADPH/IC50with30-minpreincubationplusNADPH
# CYP2C9 [11] = biological target: T1, CYP2C9; assay: IC50 shift assay in recombinant CYP2C9 microsomes; format: in vitro ADME; design: made in house; settings: recombinant CYP2C9-overexpressing microsomes, probe diclofenac (4′-hydroxylation), 4′-hydroxylation of diclofenac, rec CYP2C9, 30-min preincubation minus vs plus NADPH, mean ± SD
# Protocol: as §1, §2
# CYP2C9 [12] = biological target: T1, CYP2C9; assay: Initial inhibition screen at 1 or 10 μM, CYP2C9 (recombinant microsomes and HLM); format: in vitro ADME; design: made in house; host or cells: HEK293 cells (microsomal fraction); settings: 10 μM cannabinoid; recombinant P450-overexpressing microsomes as well as HLM
# CYP2C9 [13] = biological target: T1, CYP2C9; assay: Inhibition of CYP2C9 activity in pooled human liver microsomes (diclofenac and warfarin probes); format: in vitro ADME; design: made in house; host or cells: HEK293 cells (microsomal fraction); settings: HLM, unbound, adjusted with fu,inc, mean ± SD; for IC50: IC50,u; for Ki: Ki,u
# CYP3A4 [14] = biological target: T2, CYP3A4; assay: Inhibition of CYP3A4 activity in pooled human liver microsomes (midazolam probe); format: in vitro ADME; design: made in house; host or cells: HEK293 cells (microsomal fraction)
# CYP2C9 and CYP3A4 = assay: IC50,u / Ki,u summarised across all CYP2C9 and CYP3A4 enzyme-substrate pairs; format: in vitro ADME; settings: human
# CYP3A4 [15] = biological target: T2, CYP3A4; assay: Inhibition of recombinant CYP3A4-overexpressing microsomes (midazolam probe); format: in vitro ADME; design: made in house; host or cells: HEK293 cells (microsomal fraction); settings: for Inhibition Type: 1′-hydroxylation of midazolam, cell merged over rec CYP3A4 and HLM; for inhibition mechanism (Lineweaver–Burk): CYP3A4-mediated midazolam metabolism, recombinant P450 microsomes and HLM, consistent profiles
# CB1 receptors = test system: CB1 receptors; design: method as in PMID 10633038; settings: partial agonist; cited from earlier work
# CB2 receptors = test system: CB2 receptors; design: method as in PMID 10633038; settings: partial agonist; cited from earlier work
# [16] = test system: major hepatic P450 enzymes; settings: cited from earlier work
# CYP3A4 [17] = test system: CYP3A4; design: method as in PMID 34493602; settings: 800 mg oral dose of CBD; mechanistic static modeling; cited from earlier work
# [18] = CYP2C9-mediated diclofenac metabolism
# [19] = CYP2C9-mediated warfarin metabolism
# [20] = diclofenac -> 4′-hydroxydiclofenac, adjusted with fu,inc of Δ9-THC / 11-OH-Δ9-THC, 3 experiments
# [21] = warfarin -> 7′-hydroxywarfarin, adjusted with fu,inc
# [22] = 4′-hydroxylation of diclofenac, adjusted with fu,inc
# [23] = 7′-hydroxylation of warfarin, adjusted with fu,inc
# [24] = diclofenac -> 4′-hydroxydiclofenac
# T1 sequence (P11712 whole entry): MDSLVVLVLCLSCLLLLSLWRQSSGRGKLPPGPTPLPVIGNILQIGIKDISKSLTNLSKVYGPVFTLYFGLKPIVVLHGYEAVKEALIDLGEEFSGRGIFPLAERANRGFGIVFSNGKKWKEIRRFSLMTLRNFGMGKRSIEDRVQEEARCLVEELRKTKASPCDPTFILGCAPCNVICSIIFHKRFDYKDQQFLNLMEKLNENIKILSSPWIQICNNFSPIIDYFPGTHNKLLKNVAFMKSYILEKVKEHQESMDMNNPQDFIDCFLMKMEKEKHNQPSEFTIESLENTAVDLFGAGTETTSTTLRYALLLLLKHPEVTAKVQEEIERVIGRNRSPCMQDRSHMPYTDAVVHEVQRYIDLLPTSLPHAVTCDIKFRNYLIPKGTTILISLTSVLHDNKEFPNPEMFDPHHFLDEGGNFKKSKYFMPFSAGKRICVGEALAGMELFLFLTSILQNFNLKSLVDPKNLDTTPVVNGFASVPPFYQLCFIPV
smiles,measurement,setting,value
CCCCCc1cc(O)c2c(c1)OC(C)(C)C1CCC(CO)=CC21 (stereo not shown) [11-OH-Δ9-THC],mechanism of inhibition,CYP2C9 [1],competitive inhibitors
same,Ki,CYP2B6; CYP2B6 in HLM,0.26 ± 0.041 µM
same,Ki,CYP2B6; recombinant CYP2B6,0.086 ± 0.066 µM
same,inhibitory effect on CYP3A4,CYP3A4 [2],not observed previously
O=C(O)Cc1ccccc1Nc1c(Cl)cccc1Cl [diclofenac],Fg (fraction of substrate available after intestinal metabolism),[3],0.64
same,fm (fraction of hepatic clearance mediated by the inhibited P450 enzyme),[3],0.98
"CCCCCc1cc(O)c2c(c1)OC(C)(C)C1CCC(C)=CC21 (stereo not shown) [Δ9-THC, Δ9-tetrahydrocannabinol]",Ki,CYP1A2; CYP1A2 in HLM,0.1 ± 0.056 µM
same,Ki,CYP1A2; recombinant CYP1A2,0.09 ± 0.027 µM
same,mechanism of inhibition,CYP2C9 [1],competitive inhibitors
same,Ki,CYP2B6; CYP2B6 in HLM,0.38 ± 0.029 µM
same,Ki,CYP2B6; recombinant CYP2B6,0.25 ± 0.043 µM
same,Ki,CYP2D6; CYP2D6 in HLM,0.28 ± 0.03 µM
same,Ki,CYP2D6; recombinant CYP2D6,0.11 ± 0.015 µM
same,Ki,CYP2C19; CYP2C19 in HLM,0.21 ± 0.082 µM
same,Ki,CYP2C19; recombinant CYP2C19,0.056 ± 0.018 µM
same,increase in systematic exposure of diclofenac,CYP2C9 [4]; 40 mg oral dose of Δ9-THC,≥ 44%
same,increase in systematic exposure of diclofenac,CYP2C9 [4]; 130 mg oral dose of Δ9-THC,> 560%
CC(=O)CC(c1ccccc1)c1c(O)c2ccccc2oc1=O (stereo not shown) [warfarin],fm (fraction of hepatic clearance mediated by the inhibited P450 enzyme),[3],0.91
"CCCCCc1cc(O)c2c(c1)OC(C)(C)C1CC=C(CO)CC21 (stereo not shown) [11-OH-Δ8-THC, 11-hydroxy-Δ8-THC]",Inhibition Type,CYP2C9 [5]; 4′-hydroxylation of diclofenac,[…]
same,inhibition of other major hepatic P450 enzymes tested,[6],Minimal or no inhibition
same,reduction of 1′-hydroxymidazolam formation,CYP3A4 [7],> 40%
same,inhibition of CYP3A4 with testosterone as substrate,CYP3A4 [7],inhibition observed for midazolam but not testosterone
same,"fu,p (unbound fraction of drug in plasma)",[8],0.03
same,Cmax,[9]; oral Δ8-THC dose 10 mg,0.015 µM
same,Cmax,[9]; oral Δ8-THC dose 20 mg,0.1 µM
same,Cmax,[9]; oral Δ8-THC dose 40 mg,0.12 µM
same,reduction of 4′-hydroxydiclofenac formation,CYP2C9 [12],> 40%
same,reduction of 7′-hydroxywarfarin formation,CYP2C9 [12],> 40%
same,IC50,CYP2C9 [13]; [24],0.71 ± 0.43 µM
same,IC50,CYP2C9 [13]; warfarin -> 7′-hydroxywarfarin,1.72 ± 0.1 µM
same,Ki,CYP2C9 [13]; 4′-hydroxylation of diclofenac,0.77 ± 0.04 µM
same,Ki,CYP2C9 [13]; 7′-hydroxylation of warfarin,0.4 ± 0.08 µM
same,IC50,CYP3A4 [14],1.57 ± 0.32 µM
same,Ki,CYP3A4 [14],1.2 ± 0.07 µM
same,IC50,"CYP2C9 and CYP3A4; pH 7.4, probe diclofenac, warfarin (CYP2C9), midazolam (CYP3A4), recombinant P450-overexpressing microsomes, read-out: IC50,u across all P450 enzyme-substrate pairs",0.79 to 1.5 µM
same,Ki,"CYP2C9 and CYP3A4; pH 7.4, recombinant microsomes and HLM, read-out: Ki,u across all reactions",0.4 to 1.2 µM
same,IC50 at 10 min,"CYP2C9 and CYP3A4; pooled human liver microsomes, pH 7.4, probe diclofenac, warfarin (CYP2C9), midazolam (CYP3A4), HLM, read-out: IC50,u across all P450 enzyme-substrate pairs",0.71 to 1.7 µM
same,IC50,CYP3A4 [15],1.48 ± 0.21 µM
same,Ki,CYP3A4 [15],0.89 ± 0.2 µM
same,Inhibition Type,CYP3A4 [15],N
same,inhibition mechanism (Lineweaver–Burk),CYP3A4 [15],noncompetitive inhibition
"CCCCCc1cc(O)c2c(c1)OC(C)(C)C1CC=C(C)CC21 (stereo not shown) [Δ8-THC, Δ8-Tetrahydrocannabinol]",Inhibition Type,CYP2C9 [5]; 4′-hydroxylation of diclofenac,N
same,inhibition mechanism (Lineweaver–Burk),CYP2C9 [5]; [18],noncompetitive inhibition
same,inhibition mechanism (Lineweaver–Burk),CYP2C9 [5]; [19],competitive inhibition
same,IC50,CYP2C9 [5]; [20],0.07 ± 0.01 µM
same,IC50,CYP2C9 [5]; [21],0.2 ± 0.03 µM
same,Ki,CYP2C9 [5]; [22],0.26 ± 0.01 µM
same,Ki,CYP2C9 [5]; [23],0.09 ± 0.04 µM
same,Ki,"CYP2C9 [5]; human, recombinant CYP2C9-overexpressing HEK293 microsomes, pH 7.4, probe warfarin (7′-hydroxylation), 7′-hydroxylation of warfarin, adjusted with fu,inc",0.16 ± 0.04 µM
same,inhibition of other major hepatic P450 enzymes tested,[6],Minimal or no inhibition
same,reduction of 1′-hydroxymidazolam formation,CYP3A4 [7],> 40%
same,inhibition of CYP3A4 with testosterone as substrate,CYP3A4 [7],inhibition observed for midazolam but not testosterone
same,"fu,p (unbound fraction of drug in plasma)",[8],0.03
same,potency relative to Δ9-THC,CB1 receptors,approximately half
same,Cmax,[9]; oral Δ8-THC dose 10 mg,0.0079 µM
same,Cmax,[9]; oral Δ8-THC dose 20 mg,0.0178 µM
same,Cmax,[9]; oral Δ8-THC dose 40 mg,0.048 µM
same,potency relative to Δ9-THC,CB2 receptors,approximately half
same,IC50 shift at 30 min,CYP3A4 [10],0.85 ± 0.09
same,IC50 shift at 30 min,CYP2C9 [11],1.24 ± 0.34
same,reduction of 4′-hydroxydiclofenac formation,CYP2C9 [12],> 40%
same,reduction of 7′-hydroxywarfarin formation,CYP2C9 [12],> 40%
same,IC50,CYP2C9 [13]; [24],0.23 ± 0.03 µM
same,IC50,CYP2C9 [13]; warfarin -> 7′-hydroxywarfarin,0.44 ± 0.14 µM
same,Ki,CYP2C9 [13]; 4′-hydroxylation of diclofenac,0.32 ± 0.06 µM
same,Ki,CYP2C9 [13]; 7′-hydroxylation of warfarin,0.23 ± 0.09 µM
same,IC50,CYP3A4 [14],0.48 ± 0.11 µM
same,Ki,CYP3A4 [14],0.52 ± 0.02 µM
same,IC50,"CYP2C9 and CYP3A4; pH 7.4, both recombinant enzyme microsomes and HLM, read-out: IC50,u against CYPs 2C9 and 3A4",< 0.5 µM
same,IC50,CYP3A4 [15],0.44 ± 0.14 µM
same,Ki,CYP3A4 [15],0.86 ± 0.28 µM
same,Inhibition Type,CYP3A4 [15],N
same,inhibition mechanism (Lineweaver–Burk),CYP3A4 [15],noncompetitive inhibition
CCCCCc1cc(O)c2c(c1)OC(C)(C)C1CCC(C(=O)O)=CC21 (stereo not shown) [Δ9-THC-COOH],inhibition of any major hepatic P450 enzymes,[16],no inhibition
"CCCCCc1cc(O)c2c(c1)OC(C)(C)C1CC=C(C(=O)O)CC21 (stereo not shown) [Δ8-THC-COOH, 11-nor-Δ8-tetrahydrocannabinol-9-carboxylic acid]",inhibition of any P450 enzymes tested,[6],minimal or no inhibition; also recorded: no inhibition
same,inhibition of any P450 enzymes tested,[6]; listed as 11-nor-Δ8-THC-9-carboxylic acid,no significant inhibition
"C=C(C)[C@@H]1CCC(C)=C[C@H]1c1c(O)cc(CCCCC)cc1O [CBD, cannabidiol]",increase in systemic exposure of midazolam,CYP3A4 [17],> 8 fold
Cc1ncc2n1-c1ccc(Cl)cc1C(c1ccccc1F)=NC2 [midazolam],Fg (fraction of substrate available after intestinal metabolism),[3],0.51
same,fm (fraction of hepatic clearance mediated by the inhibited P450 enzyme),[3],0.93
